Data reported in patent US4368267A, “Epoxidation of lower α-olefins” (priority 1980, dated 1983).

Tested on: Methylosinus trichosporium OB3b (NRRL B-11,196)
Assay: Stoichiometry of the epoxidation of propylene by a cell-suspension
Type: cell-based
Conditions: 3.6 μmoles propylene; 3.1 mg protein; 3 min.
Procedure: As a comparison the stoichiometry of the epoxidation of propylene by a cell-suspension of Methylosinus trichosporium OB3b (NRRL B-11,196) was determined as follows. The reaction mixture (3.0 ml.) contained 0.05 M sodium phosphate buffer, pH 7.0 and 3.6 μmoles of propylene. The reaction was initiated by the injection of 0.1 ml. of cell-suspension (3.1 mg protein). A correction was made for the endogenous consumption of oxygen. The amount of oxygen consumed during the reaction (3 min.) was determined polarographically with a Clark oxygen electrode. The propylene consumed and the propylene oxide formed was estimated by gas chromatography. The propylene consumed was 0.29 μmoles, the oxygen consumed was 0.30 μmoles and the propylene oxide formed was 0.28 μmoles.

For C=CC [Propylene], the Propylene Oxide Formed was 0.28 µmol, the oxygen consumed was 0.30 µmol and the propylene consumed was 0.29 µmol.
